Results taken from ChEMBL document CHEMBL1142809, “SAR studies of 2-arylthiazolidine-4-carboxylic acid amides: a novel class of cytotoxic agents for prostate cancer” (Bioorg Med Chem Lett, 2005).

Columns and labels:
Assay type in all cases: functional, cell-based
[1] = Antiproliferative activity against human prostate cancer PPC-1 cell line by sulforhodamine B assay
[2] = Antiproliferative activity against human prostate cancer TSU-Pr1 cell line by sulforhodamine B assay
DU-145 = assay: Antiproliferative activity against human prostate cancer DU-145 cell line by sulforhodamine B assay
LNCaP = assay: Antiproliferative activity against human prostate cancer LNCaP cell line by sulforhodamine B assay
PC-3 = assay: Antiproliferative activity against human prostate cancer PC-3 cell line by sulforhodamine B assay

| Compound | IC50 (DU-145) [µM] | IC50 (LNCaP) [µM] | IC50 (PC-3) [µM] | IC50 [1] [µM] | IC50 [2] [µM] |
| --- | --- | --- | --- | --- | --- |
| CCCCCCCCCCCCCCCCCCNC(=O)[C@H]1NC(c2ccc(N(C)C)cc2)SC1(C)C (stereo not given in full) | > 20 | > 20 | > 20 | > 20 | > 20 |
| CCCCCCCCCCCCCCCCCCNC(=O)[C@@H]1CSC(c2ccc(O)cc2)N1 (stereo not given in full) | 3.1 | 1.6 | 5.3 | 0.82 | 3 |
| CCCCCCCCCCCCCCCCCCNC(=O)[C@@H]1CSC(c2ccc(OCC)cc2)N1 (stereo not given in full) | > 20 | 6.1 | > 20 | 4.4 | > 20 |
| CCCCCCCCCCCCCCCCCCNC(=O)[C@@H]1CSC(c2ccc(N(C)C)cc2)N1 (stereo not given in full) | 5.3 | 1.6 | 6 | 1.1 | 3 |
| CCCCCCCCCCCCCCCCCCNC(=O)[C@@H]1CSC(c2cccc(O)c2)N1 (stereo not given in full) | 5.7 | 1.7 | 6.7 | 1.2 | 4 |

Further lines, with some results ahead:

| IC50 (DU-145) [µM] | IC50 (LNCaP) [µM] | IC50 (PC-3) [µM] | Compound | IC50 [1] [µM] | IC50 [2] [µM] |
| --- | --- | --- | --- | --- | --- |
| 7.3 | 2.4 | 10.6 | CCCCCCCCCCCCCCCCCCNC(=O)[C@@H]1CSC(c2c(OC)cc(OC)cc2OC)N1 (stereo not given in full) | 0.83 | 6.1 |
| > 20 | 8.7 | > 20 | CCCCCCCCN(CCCCCCCC)C(=O)[C@@H]1CSC(c2cc(OC)c(OC)c(OC)c2)N1 (stereo not given in full) | 14.1 | > 20 |
| > 20 | > 20 | > 20 | CCCCCCCCCCCCCCCCCCNC(=O)[C@H]1NC(c2cc(OC)c(OC)c(OC)c2)SC1(C)C (stereo not given in full) | 18.8 | > 20 |
| 8.7 | 2.1 | 19 | CCCCCCCCCCCCCCCCCCNC(=O)[C@@H]1CSC(c2ccc(OC)cc2)N1 (stereo not given in full) | 1.5 | 19.6 |
| 3.9 | 0.82 | 4 | CCCCCCCCCCCCCCCCCCNC(=O)[C@@H]1CSC(c2cc(OC)c(OC)c(OC)c2)N1 (stereo not given in full) | 0.48 | 2.4 |
